The subject of the assay is Erysiphe graminis f. sp. hordei. Particulars: in vivo.

As for `CC#CC(C)(C)NC(=O)C(OCC)Oc1cncc(Cl)c1` (stereo not shown) [1 (1), 2-(5-chloropyridyl-3-oxy)-2-(ethoxy)-N-(2-methylpent-3-yn-2-yl) acetamide], the control of disease is listed as > 60%.

The values are drawn from patent US7511151B2 (priority 2002, dated 2009).
